Measurements published in article PMC4430595 (European Journal of Clinical Pharmacology, 2015).
Several values for one entry are separate records, joined by “and”; a condition that tells them apart may be missing. Equal values may be shown once. Read-outs that look alike come from different tables or passages of the source.

Legend:
[1] = Study A: plasma pharmacokinetics after single-dose i.v. telavancin 7.5 mg/kg in subjects with varying renal function
Text: (§1) Subjects included men and non-pregnant women and, in study A or B, respectively, were ≥18 years or 20–79 years of age with a body mass index of 18–36 or 18.5–34 kg/m^2. Subjects were either healthy or had mild, moderate or severe renal impairment.
(§2) Subjects were assigned to the renal impairment strata based on assessment during pre-study screening. For study A, strata assignment was based on CLcr calculated using the Cockcroft-Gault (C–G) equation [12] […] For study B, assignment was based on the estimated glomerular filtration rate (eGFR) using the Modification of Diet in Renal Disease formula [13] […] Summary statistics for Study B were also prepared using the C–G equation [12] with and without normalization to body surface area. Creatinine assays were performed at each clinical site using UV absorbance assays at 512 nm to detect the yellow–red complex formed from the reaction of creatinine and picric acid under alkaline conditions.
(§3) In subjects with end-stage renal disease (ESRD), haemodialysis was initiated 2–4 h after study drug administration (study A only). Haemodialysis sessions were 4 h in duration, and when possible, a similar type of dialyzer at a similar blood flow rate was used across haemodialysis subjects.
(§4) Blood samples (5–6 ml) were collected in sodium heparin glass tubes and stored chilled until the plasma was harvested by centrifugation and stored at approximately –70 °C or below until transferred frozen to a central laboratory for analysis. For subjects with varying degrees of renal impairment, samples were collected in study A pre-infusion, at 1, 2, 4, 6, 8, 12, 24, 36 and 48 h after the start of infusion for all groups and also at 72 and 96 h post-infusion for subjects with severe renal impairment or ESRD. In study B, samples were collected pre-infusion and at 0.5, 1, 1.5, 2, 3, 4, 6, 8, 10, 12, 16, 24, 36, 48, 60, 72, 84 and 96 h post-dose.
(§5) The method was linear over the range 0.25–100 μg/ml and the lower limit of quantification (LLQ) was 0.25 μg/ml. Dialysate samples from study A were analysed at a separate central laboratory (Covance Laboratories, Madison, WI, USA) using a similar validated LC–MS method. […] Study samples outside the calibration range were diluted and re-assayed. Dilution QC samples were included in batches where samples were diluted prior to analysis.
(§6) The CL reported for ESRD is the CL for the subjects (i.e., includes residual clearance and any dialysis clearance).

[2] = Study B: urinary excretion and renal clearance; conditions: mean ± SD; for CLR (renal clearance): CLR = Ae ÷ AUC; for dose excreted: human, in vivo, iv, 10 mg/kg; for Ae0–∞ (amount excreted in the urine extrapolated to infinity): normalized to a telavancin dose of 10 mg/kg
Procedure: Aliquots were collected and stored at −70 °C or lower.
The inter- and intra-assay precision and accuracy of quality controls and standards during the validation was within 7.6 % in plasma and 10.2 % in urine.
Plasma pharmacokinetic parameters were calculated as previously described [7]. The CL reported for ESRD is the CL for the subjects (i.e., includes residual clearance and any dialysis clearance).
Dialyzers used included the PSN 210 and the 2K 2.5 Dialysate (both Gambro). The dialysate flow rate was 800 mL/min, and blood flow rates in patients ranged from 300 to 500 mL/min. […] In study B, the percentage of the dose excreted in urine was calculated as Ae0–t% = Ae0–t/dose × 100 % and Ae0–∞% = Ae0–∞/dose × 100 %.

[3] = Study B: plasma pharmacokinetics after single-dose i.v. telavancin 10 mg/kg in subjects with varying renal function; conditions: for half-life / AUC(0-inf) / Cmax / clearance: both, human, in vivo, iv; for half-life / AUC(0-inf) / Cmax / clearance / increase in systemic exposure (AUC0–∞) compared with healthy subjects: 10 mg/kg; for AUC(0-inf): AUC0–∞; for Cmax: C max (maximum plasma concentration); for clearance: CL (clearance)
Procedure: Plasma pharmacokinetic parameters were calculated as previously described.

[4] = cited from earlier work
plasma proteins = assay: Plasma protein binding by equilibrium dialysis (study A pre-infusion plasma); type: in vitro ADME, human; conditions: in vitro equilibrium dialysis; for Protein binding (%): pre-infusion plasma, telavancin 50 μg/ml spiked with 1 μg/ml [14C]telavancin, mean ± SD
Procedure: The percent of protein binding was calculated as follows: %bound=donor−receptor÷donor×100%,and%unbound=receptor÷donor×100%, where donor = plasma side concentration and receptor = buffer side concentration.

[5] = study A, ESRD
Procedure: as §3
For subjects with ESRD (study A), a sample from the inflow to the dialyzer on the arterial side was collected before dialysis and at 1, 2, 3 and 4 h after the start of dialysis; dialysate fluid samples (10 ml) were collected before and at 30-min intervals during dialysis. Plasma samples were also collected at 0, 60, 120, 180 and 240 min following the start of dialysis.
as §5
Dialyzers used included the PSN 210 and the 2K 2.5 Dialysate (both Gambro). The dialysate flow rate was 800 mL/min, and blood flow rates in patients ranged from 300 to 500 mL/min.

clinical = conditions: both, human, in vivo, iv, 7.5 mg/kg
Text: as §1, §2, §3, §4, §5, §6

[6] = not given; remark: listed apart in the source
[7] = subjects with severe renal impairment or ESRD, stated for both studies
[8] = study B, single 1-h i.v. infusion telavancin 10 mg/kg, plasma, mild RI (eGFR 60 to 89 mL/min/1.73 m^2), n = 13, mean ± SD
[9] = study B, single 1-h i.v. infusion telavancin 10 mg/kg, plasma, normal renal function (eGFR ≥90 mL/min/1.73 m^2), n = 14, mean ± SD
[10] = study B, single 1-h i.v. infusion telavancin 10 mg/kg, plasma, severe RI (eGFR 15 to 29 mL/min/1.73 m^2), n = 8, mean ± SD

## CCCCCCCCCCNCCN[C@@]1(C)C[C@H](O[C@H]2[C@H](Oc3c4cc5cc3Oc3ccc(cc3Cl)[C@@H](O)[C@@H](NC(=O)[C@@H](CC(C)C)NC)C(=O)N[C@@H](CC(N)=O)C(=O)N[C@H]5C(=O)N[C@H]3C(=O)N[C@H](C(=O)N[C@H](C(=O)O)c5cc(O)c(CNCP(=O)(O)O)c(O)c5-c5cc3ccc5O)[C@H](O)c3ccc(c(Cl)c3)O4)O[C@H](CO)[C@@H](O)[C@@H]2O)O[C@@H](C)[C@H]1O [telavancin]
[1]; both, human, in vivo, iv, 7.5 mg/kg, CL (clearance), study A, single 1-h i.v. infusion telavancin 7.5 mg/kg, plasma, ESRD, n = 6, includes residual clearance and any dialysis clearance, mean ± SD
  clearance: 0.136 mL/min/kg
[1]; study A, 7.5 mg/kg, ESRD group
  increase in systemic exposure (AUC0–∞) compared with healthy subjects: 79%
[1]; study A, 7.5 mg/kg, mild renal impairment
  increase in systemic exposure (AUC0–∞) compared with healthy subjects: 13%
[1]; study A, 7.5 mg/kg, moderate renal impairment
  increase in systemic exposure (AUC0–∞) compared with healthy subjects: 29%
[1]; study A, 7.5 mg/kg, severe renal impairment
  increase in systemic exposure (AUC0–∞) compared with healthy subjects: 118%
[1]; [7]
  change of t1/2: almost doubled
  reduction of mean plasma CL: more than 50%
[2]; mild renal impairment
  CLR (renal clearance): 0.147 ± 0.055 mL/min/kg
  Ae0–∞ (amount excreted in the urine extrapolated to infinity): 396 ± 100 mg
[2]; moderate renal impairment
  CLR (renal clearance): 0.0783 ± 0.0267 mL/min/kg
  Ae0–∞ (amount excreted in the urine extrapolated to infinity): 375 ± 96 mg
[2]; normal renal function
  CLR (renal clearance): 0.17 ± 0.03 mL/min/kg and 0.175 ± 0.0317 mL/min/kg
  Ae0–∞ (amount excreted in the urine extrapolated to infinity): 435 ± 91 mg
[2]; severe renal impairment
  CLR (renal clearance): 0.03 ± 0.01 mL/min/kg and 0.0317 ± 0.012 mL/min/kg
  Ae0–∞ (amount excreted in the urine extrapolated to infinity): 208 ± 60 mg
[2]; both, Ae0-t % (percentage of the dose excreted in urine), urine 0–96 h, mild renal impairment
  dose excreted: 58.2 ± 11.5%
[2]; both, Ae0-t % (percentage of the dose excreted in urine), urine 0–96 h, moderate renal impairment
  dose excreted: 48.4 ± 8.7%
[2]; both, Ae0-t % (percentage of the dose excreted in urine), urine 0–96 h, normal renal function
  dose excreted: 62.8 ± 9%
[2]; both, Ae0–∞% (percentage of the dose excreted in urine, extrapolated to infinity), normal renal function
  dose excreted: 62.7 ± 9.1%
[2]; Ae0–∞% (percentage of the dose excreted in urine, extrapolated to infinity), mild renal impairment
  dose excreted: 58.2 ± 11.6%
[2]; Ae0–∞% (percentage of the dose excreted in urine, extrapolated to infinity), moderate renal impairment
  dose excreted: 48.4 ± 9.3%
[2]; Ae0–∞% (percentage of the dose excreted in urine, extrapolated to infinity), severe renal impairment
  dose excreted: 28.2 ± 3.9%
[2]; urine 0–96 h, severe renal impairment
  Ae0-t % (percentage of the dose excreted in urine): 28.0 ± 4.3%
[3]
  half-life: 6.5 h
[3]; [8]
  AUC(0-inf): 606 µg·h/mL
  clearance: 0.253 mL/min/kg
[3]; study B, single 1-h i.v. infusion telavancin 10 mg/kg, plasma, moderate RI (eGFR 30 to 59 mL/min/1.73 m^2), n = 8, mean ± SD
  AUC(0-inf): 936 µg·h/mL
[3]; [9]
  AUC(0-inf): 539 µg·h/mL
  clearance: 0.283 mL/min/kg
[3]; [10]
  AUC(0-inf): 1400 µg·h/mL
  clearance: 0.108 mL/min/kg
[3]; study B, single 1-h i.v. infusion telavancin 10 mg/kg, mild RI (eGFR 60 to 89 mL/min/1.73 m^2), n = 13, mean ± SD
  Cmax: 74.2 µg/mL
[3]; study B, single 1-h i.v. infusion telavancin 10 mg/kg, normal renal function (eGFR ≥90 mL/min/1.73 m^2), n = 14, mean ± SD
  Cmax: 76.7 µg/mL
[3]; study B, single 1-h i.v. infusion telavancin 10 mg/kg, severe RI (eGFR 15 to 29 mL/min/1.73 m^2), n = 8, mean ± SD
  Cmax: 83.2 µg/mL
[3]; t ½ (terminal elimination half-life), study B, single 1-h i.v. infusion telavancin 10 mg/kg, plasma, mild RI (eGFR 60 to 89 mL/min/1.73 m^2), n = 13, mean ± SD
  half-life: 7.8 h
[3]; t ½ (terminal elimination half-life), study B, single 1-h i.v. infusion telavancin 10 mg/kg, plasma, severe RI (eGFR 15 to 29 mL/min/1.73 m^2), n = 8, mean ± SD
  half-life: 11.8 h
[3]; study B, mild renal impairment
  increase in systemic exposure (AUC0–∞) compared with healthy subjects: 12%
[3]; study B, moderate renal impairment
  increase in systemic exposure (AUC0–∞) compared with healthy subjects: 74%
[3]; study B, severe renal impairment
  increase in systemic exposure (AUC0–∞) compared with healthy subjects: 160%
[3]; study B, single 1-h i.v. infusion telavancin 10 mg/kg, moderate RI (eGFR 30 to 59 mL/min/1.73 m^2), n = 8, mean ± SD
  C max (maximum plasma concentration): 78.0 ± 4.5 µg/mL
[4]; after a single i.v. administration of 10 mg/kg
  excreted intact in urine: 82%
[4]; healthy adult volunteers, 7.5–15 mg/kg/day i.v. infusion, averaging
  elimination half-life (t½): ~7 h
Plasma proteins; ESRD on dialysis, n = 6
  Protein binding (%): 87.6 ± 1.0/0%
Plasma proteins; mild RI (CLcr 51–80 mL/min), n = 6
  Protein binding (%): 87.5 ± 1.0%
Plasma proteins; moderate RI (CLcr 30–50 mL/min), n = 6
  Protein binding (%): 87.8 ± 1.1%
Plasma proteins; normal renal function (CLcr >80 mL/min), n = 6
  Protein binding (%): 86.5 ± 1.3%
Plasma proteins; severe RI (CLcr <30 mL/min), n = 4
  Protein binding (%): 86.7 ± 1.2%
Plasma proteins; study A pre-dose plasma, all renal impairment groups
  average binding to plasma proteins: approximately 87%
Study A, ESRD, 2/6
  subjects reporting treatment-emergent adverse events (TEAEs): 33%
Study A, all subjects, 17/29
  subjects reporting treatment-emergent adverse events (TEAEs): 59%
Study A, mild renal impairment, 4/7
  subjects reporting treatment-emergent adverse events (TEAEs): 57%
Study A, moderate renal impairment, 3/6
  subjects reporting treatment-emergent adverse events (TEAEs): 50%
Study A, normal renal function, 5/6
  subjects reporting treatment-emergent adverse events (TEAEs): 83%
Study A, severe impairment, 3/4
  subjects reporting treatment-emergent adverse events (TEAEs): 75%
Study A, single i.v. infusion 7.5 mg/kg, normal renal function and varying degrees of renal impairment
  tolerability: well tolerated
Ten subjects with various degrees of renal impairment, study not given
  audiology assessments: no clinically significant abnormalities
[5]
  dialysis clearance as share of clearance in normal subjects (total body CL): approximately 25%
[5]; 7.5 mg/kg, 4-h haemodialysis on the day of administration, dialysate flow 800 mL/min
  total administered dose removed by dialysis session: approximately 6%
[5]; CLHD = QD × (CTLV – DTLV) ÷ CTLV, dialysate flow 800 mL/min, estimated
  dialysis clearance: 4.5 mL/min
[5]; same value in ml/h
  dialysis clearance: 4.52 mL/min
clinical
  Cmax: 70.6 ± 11.2 µg/mL
[6]; stated after the study B findings, study not given
  serious adverse events: No serious adverse events were reported
[6]; study B, all subjects, 7/43
  subjects reporting treatment-emergent adverse events (TEAEs): 16.3%
[6]; study B, mild renal impairment, 1/13
  subjects reporting treatment-emergent adverse events (TEAEs): 7.7%
[6]; study B, moderate renal impairment, 2/8
  subjects reporting treatment-emergent adverse events (TEAEs): 25%
[6]; study B, normal renal function, 0/14
  subjects reporting treatment-emergent adverse events (TEAEs): 0%
[6]; study B, severe impairment, 4/8
  subjects reporting treatment-emergent adverse events (TEAEs): 50%
[6]; study B, single i.v. infusion 10 mg/kg, normal renal function and varying degrees of renal impairment
  tolerability: well tolerated
[6]; study B, three subjects of 43 (two severe, one moderate renal impairment), mild and transient
  subjects with ECG QT prolongation: 7.0%
[6]; study B, two subjects of 43, mild and transient
  subjects with increased blood lactate dehydrogenase: 4.7%
